The source of these data is patent US20060173015A1, “Cyclohexyldiamines as selective alpha 1a/1d adrenoreceptor antagonists for the treatment of benign prostatic hypertrophy and lower urinary tract symptoms” (priority 2004, published 2006).

The subject of series [1] is α1a and α1d subtypes over the α1b subtype. The note with it: cited from earlier work.
Series [2] concerns BPH patients. The note with it: large clinical trials of BPH patients; cited from earlier work.
Series [3] concerns micturition pressure. Particulars: intrathecal; normal rats and rats with bladder hypertrophy secondary to outlet obstruction; cited from earlier work.
Series [4] addresses T1, α1a-AR (Homo sapiens, UniProt P35348).
T1 construct: expressed in transfected cells; host or cells: COS-7
T1 sequence (P35348 1-466): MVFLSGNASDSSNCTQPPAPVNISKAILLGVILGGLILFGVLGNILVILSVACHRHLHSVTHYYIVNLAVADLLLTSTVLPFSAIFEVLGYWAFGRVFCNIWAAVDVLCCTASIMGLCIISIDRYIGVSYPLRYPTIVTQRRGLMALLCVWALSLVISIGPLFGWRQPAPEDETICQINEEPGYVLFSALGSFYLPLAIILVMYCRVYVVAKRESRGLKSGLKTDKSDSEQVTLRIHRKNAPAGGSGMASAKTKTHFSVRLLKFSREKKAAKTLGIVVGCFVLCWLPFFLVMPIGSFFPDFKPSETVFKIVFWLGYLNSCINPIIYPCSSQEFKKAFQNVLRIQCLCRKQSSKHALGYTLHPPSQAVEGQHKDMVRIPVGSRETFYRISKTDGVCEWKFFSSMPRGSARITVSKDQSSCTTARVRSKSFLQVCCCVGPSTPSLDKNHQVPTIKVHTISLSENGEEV
The experiment in a line: α1-Adrenergic receptor radio-ligand (125I-HEAT) binding assay, α1a subtype. Particulars: COS-7 cell membranes, 125I-HEAT. Put shortly: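 Membranes from COS-7 cells transfected with the α1a-AR were incubated with 50 pM final ¹²⁵I-HEAT and test compound (1 pM–10 μM final, half-log steps) in Tris/EDTA/NaCl buffer pH 7.4 for 1 hr at rt. Bound radioactivity was counted after GF/C filtration, in triplicate.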

The target of series [5] is T2, α1d-AR (Homo sapiens, UniProt P25100).
T2 construct: expressed in transfected cells; host or cells: COS-7
T2 sequence (P25100 1-572): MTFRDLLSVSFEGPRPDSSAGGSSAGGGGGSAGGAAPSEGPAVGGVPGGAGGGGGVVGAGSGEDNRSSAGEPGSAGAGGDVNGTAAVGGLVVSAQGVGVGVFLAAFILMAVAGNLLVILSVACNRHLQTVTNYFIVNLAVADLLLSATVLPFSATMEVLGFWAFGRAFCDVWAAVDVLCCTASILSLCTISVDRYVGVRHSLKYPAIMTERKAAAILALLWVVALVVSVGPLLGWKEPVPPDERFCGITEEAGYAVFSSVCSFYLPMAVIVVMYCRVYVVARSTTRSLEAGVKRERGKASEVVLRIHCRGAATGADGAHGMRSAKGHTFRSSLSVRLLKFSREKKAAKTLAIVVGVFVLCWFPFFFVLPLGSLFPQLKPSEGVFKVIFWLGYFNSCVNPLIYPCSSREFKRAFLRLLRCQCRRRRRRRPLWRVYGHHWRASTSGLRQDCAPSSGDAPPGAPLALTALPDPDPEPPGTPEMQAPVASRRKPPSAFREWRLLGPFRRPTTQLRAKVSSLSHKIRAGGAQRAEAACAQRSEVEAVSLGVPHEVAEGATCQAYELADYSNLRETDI
The experiment in a line: α1-Adrenergic receptor radio-ligand (125I-HEAT) binding assay, α1d subtype. Particulars: COS-7 cell membranes, 125I-HEAT; read-out: Receptor Binding, Ki α1d-AR.

Series [6] has as its target T3, α1b-AR (Homo sapiens, UniProt P35368).
T3 sequence (P35368 1-520): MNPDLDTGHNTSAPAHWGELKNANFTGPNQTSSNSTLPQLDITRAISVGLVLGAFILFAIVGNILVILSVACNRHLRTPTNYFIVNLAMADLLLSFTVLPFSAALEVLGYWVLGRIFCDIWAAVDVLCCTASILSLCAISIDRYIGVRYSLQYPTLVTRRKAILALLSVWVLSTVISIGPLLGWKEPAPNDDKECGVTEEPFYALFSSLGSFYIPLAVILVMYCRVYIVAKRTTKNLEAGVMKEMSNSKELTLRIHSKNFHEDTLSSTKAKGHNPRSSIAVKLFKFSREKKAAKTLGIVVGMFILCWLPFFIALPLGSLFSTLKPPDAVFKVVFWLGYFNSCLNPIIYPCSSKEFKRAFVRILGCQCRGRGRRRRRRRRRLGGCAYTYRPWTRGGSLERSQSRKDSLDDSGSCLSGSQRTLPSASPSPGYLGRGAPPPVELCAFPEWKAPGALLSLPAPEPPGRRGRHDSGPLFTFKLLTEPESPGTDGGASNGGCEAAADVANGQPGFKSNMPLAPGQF
The experiment in a line: α1-Adrenergic receptor radio-ligand (125I-HEAT) binding assay, α1b subtype. Particulars: Receptor Binding, Ki α1b-AR, COS-7 cell membranes, 125I-HEAT.

Counter-ions that a name gives are not always drawn.

In the case of `CCOc1ccccc1OCCN[C@H](C)Cc1ccc(OC)c(S(N)(=O)=O)c1` [Tamsulosin], the “selectivity for the α1a and α1d subtypes over the α1b subtype” value in series [1] is recorded as “about 15 fold”. In series [2], the “effect on obstructive and irritative symptoms” value is “improvement in both obstructive and irritative symptoms”.

With `COc1ccc(S(=O)(=O)N[C@H]2CC[C@H](N3CCN(c4cc(F)ccc4OCC(F)(F)F)CC3)CC2)cc1OC` (as salt: fumarate) [Cpd 84, N-trans-(4-{4-[5-Fluoro-2-(2,2,2-trifluoro-ethoxy)-phenyl]-piperazin-1-yl}-cyclohexyl)-3,4-dimethoxy-benzenesulfonamide], the melting point was 185 °C.

In the case of `CCN([C@H]1CC[C@@H](N2CCN(c3ccccc3OC(C)C)CC2)CC1)S(=O)(=O)c1ccc(OC)c(OC)c1` (as salt: fumarate) [Cpd 67, N-Ethyl-N-cis-{4-[4-(2-isopropoxy-phenyl)-piperazin-1-yl]-cyclohexyl}-3,4-dimethoxy-benzenesulfonamide], the melting point is 199 °C (dec.).

As for `CCN([C@H]1CC[C@H](N2CCN(c3ccccc3OC(C)C)CC2)CC1)S(=O)(=O)c1ccc(OC)c(OC)c1` (as salt: fumarate) [Cpd 68, N-Ethyl-N-trans-{4-[4-(2-isopropoxy-phenyl)-piperazin-1-yl]-cyclohexyl}-3,4-dimethoxy-benzenesulfonamide], the melting point was 186 °C (dec.).

Take `COc1cc2nc(N3CCN(C(=O)C4COc5ccccc5O4)CC3)nc(N)c2cc1OC` (stereo not shown) [doxazosin]: the “effect on micturition pressure” value in series [3] is reported as “decrease in micturition pressure”.

`COc1ccc(S(=O)(=O)N[C@H]2CC[C@@H](N3CCN(c4cc(F)ccc4OCC(F)(F)F)CC3)CC2)cc1OC` (as salt: fumarate) [Cpd 83, N-cis-(4-{4-[5-Fluoro-2-(2,2,2-trifluoro-ethoxy)-phenyl]-piperazin-1-yl}-cyclohexyl)-3,4-dimethoxy-benzenesulfonamide] registered a melting point of 232 °C.

For `COc1ccc(C)cc1S(=O)(=O)N[C@H]1CC[C@H](N2CCN(c3ccccc3OC(C)C)CC2)CC1` [Cpd 32, N-trans-{4-[4-(2-Isopropoxy-phenyl)-piperazin-1-yl]-cyclohexyl}-2-methoxy-5-methyl-benzenesulfonamide], the results for the Ki in series [4], in series [5] and in series [6] were 0.0009 µM, 0.031 µM and 0.218 µM, respectively.

`CC(C)Oc1ccccc1N1CCN([C@H]2CC[C@@H](NS(=O)(=O)c3ccc(Cl)cc3Cl)CC2)CC1` [Cpd 1, 2,4-Dichloro-N-cis-{4-[4-(2-isopropoxy-phenyl)-piperazine-1-yl]-cyclohexyl}-benzenesulfonamide]: the Ki is 0.0045 µM in series [4], 0.00064 µM in series [5] and 0.177 µM in series [6].

For orientation: melting point means the temperature, or range, at which the solid turns liquid. As a reminder, the Ki is a dissociation constant, usually derived from enzyme kinetics or from competition with a known ligand.
